± gives the standard deviation of the reports.
Row | glass transition temperature | Compound
1 | 50.00 °C | *Oc1ccc(-c2ccc(OC(=O)c3ccc(-c4ccc(C(*)=O)cc4C(F)(F)F)c(C(F)(F)F)c3)cc2C(=O)OCCCCCCCCCCCOc2ccc(-c3ccc(C#N)cc3)cc2)c(C(=O)OCCCCCCCCCCCOc2ccc(-c3ccc(C#N)cc3)cc2)c1 (repeat unit)
2 | 73.00 °C | *CC(=O)NCCCCCCNC(=O)CC1COC(*)CO1 (repeat unit)
3 | 95.00 °C | *CCCCCCNC(=O)Cc1ccc(CC(=O)N*)cc1 (repeat unit)
4 | 390.00 °C | *c1ccc(C(=O)Nc2cccc(-n3c(=O)c4cc5c(=O)n(*)c(=O)c5cc4c3=O)c2)cc1 (repeat unit)
5 | 210.00 °C | *c1ccc2c(c1)C(=O)N(c1cc(OCCN(CC)c3ccc(/N=N/c4ccc([N+](=O)[O-])cc4)cc3)cc(N3C(=O)c4ccc(C(*)(C(F)(F)F)C(F)(F)F)cc4C3=O)c1)C2=O (repeat unit)
6 | 258.00 °C | *c1ccc(C(=O)Nc2ccc(Oc3ccc(S(=O)(=O)c4ccc(Oc5ccc(NC(=O)c6ccc(N7C(=O)c8ccc(-c9ccc%10c(c9)C(=O)N(*)C%10=O)cc8C7=O)cc6)cc5)cc4)cc3)cc2)cc1 (repeat unit)
7 | 145.00 °C | *CC(O)COc1c(C)cc(C(C)(C)c2cc(C)c(OCC(O)COc3ccc(S(=O)(=O)c4ccc(O*)cc4)cc3)c(C)c2)cc1C (repeat unit)
8 | 331.00 °C | *C(=O)Nc1ccc(C2(c3ccc(N4C(=O)c5ccc(*)cc5C4=O)cc3)CCC(C(C)(C)C)CC2)cc1 (repeat unit)
9 | 398.00 °C | *c1ccc(-c2ccc(-n3c(=O)c4cc5c(=O)n(*)c(=O)c5cc4c3=O)cc2F)c(F)c1 (repeat unit)
10 | 265.00 °C | *c1ccc(C(C)(C)c2ccc(N3C(=O)c4ccc(Oc5cccc6c(Oc7ccc8c(c7)C(=O)N(*)C8=O)cccc56)cc4C3=O)cc2)cc1 (repeat unit)
11 | 208.00 °C | *Oc1ccc(Oc2ccc(NC(=O)c3cccc(C(=O)Nc4ccc(*)cc4)c3)cc2)cc1C(C)(C)C (repeat unit)
12 | 266.00 °C | *c1ccc(Oc2ccc(C3(c4ccc(Oc5ccc(N6C(=O)c7ccc(Oc8ccc(C9(c%10ccc(Oc%11ccc%12c(c%11)C(=O)N(*)C%12=O)cc%10)CCC(C(C)(C)C)CC9)cc8)cc7C6=O)cc5)cc4)C4CC5CC(C4)CC3C5)cc2)cc1 (repeat unit)
13 | 124.00 °C | *OS(=O)(=O)c1cccc(S(=O)(=O)Oc2ccc(C(C)(C)c3ccc(*)cc3)cc2)c1 (repeat unit)
14 | 33.00 °C | *COC(=O)NCCCCCCNC(=O)OCc1ccc(*)o1 (repeat unit)
15 | 240.00 °C | *C(=O)c1ccc2c(c1)C(=O)N(C1CCC(CC3CCC(N4C(=O)c5ccc(*)cc5C4=O)C(C)C3)CC1C)C2=O (repeat unit)
16 | 310.00 °C | *c1ccc(Sc2cc3c(cc2Sc2ccc(N4C(=O)C5C6C=CC(C7C(=O)N(*)C(=O)C67)C5C4=O)cc2)C(=O)N(CCN(C)C)C3=O)cc1 (repeat unit)

Row | glass transition temperature | Compound
17 | 328.80 °C | *c1ccc(Oc2ccc(-n3c(=O)c4cc5c(=O)n(-c6ncc(*)s6)c(=O)c5cc4c3=O)cc2)cc1 (repeat unit)
18 | 127.00 °C | *c1cccc(OCCCCCCCCCCOc2cccc(N3C(=O)c4ccc(-c5cccc6c5C(=O)N(*)C6=O)cc4C3=O)c2)c1 (repeat unit)
19 | 190.00 °C | *Oc1cccc(Oc2ccc(C(=O)c3ccc(NC(=O)c4ccc(C(=O)Nc5ccc(C(=O)c6ccc(*)cc6)cc5)cc4)cc3)cc2)c1 (repeat unit)
20 | 84.00 °C | *CC(*)c1ccc(B(O[Si](C)(C)C)O[Si](C)(C)C)cc1 (repeat unit)
21 | 29.00 °C | *CC(*)C(=O)OCCCCCCCCCCOc1cnc(-c2ccc(OC(=O)C3COC(C)(C)O3)cc2)nc1 (repeat unit)
22 | 80.50 °C | *C(=O)OCCCCCCOC(=O)c1ccc(N2C(=O)c3ccc(*)cc3C2=O)cc1 (repeat unit)
23 | 48.00 °C | *CCCC(O)CN(CCCC)c1ccc(C#Cc2ccc(S(*)(=O)=O)cc2)cc1 (repeat unit)
24 | 168.60 °C | *Oc1ccc(S(=O)(=O)c2ccc(Oc3ccc(C(c4ccc(*)c([Si](C)(C)C)c4)(C(F)(F)F)C(F)(F)F)cc3[Si](C)(C)C)cc2)cc1 (repeat unit)
25 | -4.00 °C | *c1ccc(-c2sc(-c3ccc(-c4cc(CCCCCCCC)c(*)s4)cc3)cc2CCCCCCCC)cc1 (repeat unit)
26 | 4.50 °C | *CC(*)c1ccc(CCCCCCCCCCCCCCCC)cc1 (repeat unit)
27 | 235.00 °C | *c1cc(N2C(=O)c3ccc(Oc4ccc5ccc(Oc6ccc7c(c6)C(=O)N(*)C7=O)cc5c4)cc3C2=O)cc(C(F)(F)F)c1 (repeat unit)
28 | 260.50 ± 3.5 °C | *c1ccc(Oc2ccc(Oc3ccc(N4C(=O)c5cccc(Oc6cccc7c6C(=O)N(*)C7=O)c5C4=O)cc3)cc2)cc1 (repeat unit)
29 | 95.00 °C | *CC(*)(C)C(=O)OCCOCC[N+](CC)(CC)CCCCS(=O)(=O)O (repeat unit)
30 | 437.00 °C | *c1ccc(Oc2ccc(-c3nc4ccc(Oc5ccc6nc(*)c(-c7ccccc7)nc6c5)cc4nc3-c3ccccc3)cc2)cc1 (repeat unit)
31 | 76.00 °C | *CCCCCCOC(=O)OCCCCCCN1C(=O)c2ccc(C(=O)c3ccc4c(c3)C(=O)N(*)C4=O)cc2C1=O (repeat unit)

More lines, now with the values behind:

Row | Compound | glass transition temperature
32 | *C(=O)c1ccc2c(c1)C(=O)N(c1cccc(Cc3ccc(Cc4ccc(Cc5cccc(N6C(=O)c7ccc(*)cc7C6=O)c5)cc4)cc3)c1)C2=O (repeat unit) | 235.50 °C
33 | *Oc1ccc(C(=O)c2ccc(Oc3ccc(C(=O)c4c(C(=O)c5ccc(*)cc5)c(-c5ccccc5)c(-c5ccc6ccccc6c5)c(-c5ccc6ccccc6c5)c4-c4ccccc4)cc3)cc2)cc1 (repeat unit) | 290.00 °C
34 | *Oc1ccc(C(c2ccccc2)(c2ccccc2)c2ccc(Oc3ccc4c(=O)n5c6cc(-c7ccc8c(c7)nc7c9ccc(*)c%10cccc(c(=O)n87)c%109)ccc6nc5c5cccc3c45)cc2)cc1 (repeat unit) | 357.00 °C
35 | *CC(*)c1ccc(Cl)c(Cl)c1 (repeat unit) | 128.00 °C
36 | *Oc1ccc(Oc2ccc(/C=N/CCCCCCCCCC/N=C/c3ccc(*)cc3)cc2)cc1 (repeat unit) | 108.00 °C
37 | *c1ccc(NC(=O)c2ccc(OCCOCCOCCOc3ccc(C(=O)Nc4ccc5[nH]c(*)nc5c4)cc3)cc2)cc1 (repeat unit) | 155.00 °C
38 | *CC(*)(C)C(=O)OC1COC(CP(=O)(OCC)OCC)OC1 (repeat unit) | 101.50 °C
39 | *CC(OO*)c1ccc(C)cc1 (repeat unit) | 4.60 °C
40 | *CC1CC(*)C(=O)OC1=O (repeat unit) | 140.00 °C
41 | *c1cccc(P(=O)(c2cccc(-n3c(=O)c4c(-c5cc(C(F)(F)F)cc(C(F)(F)F)c5)c5c(=O)n(*)c(=O)c5c(-c5cc(C(F)(F)F)cc(C(F)(F)F)c5)c4c3=O)c2)c2cc(C(F)(F)F)cc(C(F)(F)F)c2)c1 (repeat unit) | 293.00 °C
42 | *CC(*)C(=O)Oc1cccc(C(=O)OCC)c1 (repeat unit) | 24.00 °C
43 | *CC(*)(C)C (repeat unit) [Poly(isobutene)] | -74 ± 3.6 °C
44 | *CC(*)CN (repeat unit) | 190.00 °C
45 | *CC(*)c1ccc(OC(C)=O)c(OC)c1 (repeat unit) | 115.00 °C
46 | *C(=O)Nc1ccc(/N=N/c2ccc([N+](=O)[O-])cc2)c(NC(=O)c2ccc3c(c2)C(=O)N(c2c(C)cc(Cc4cc(C)c(N5C(=O)c6ccc(*)cc6C5=O)c(C)c4)cc2C)C3=O)c1 (repeat unit) | 264.00 °C
47 | *CCCCCCNC(=O)c1ccc(C(=O)N*)c(Sc2ccccc2)c1 (repeat unit) | 121.00 °C

Row | Compound | glass transition temperature
48 | *CC(*)OC(=O)OCCC(F)(F)C(F)(F)C(F)(F)C(F)(F)C(F)(F)C(F)(F)F (repeat unit) | 37.00 °C
49 | */C(C)=C(/*)c1ccc([Si](C)(C)C)cc1 (repeat unit) | -5.00 °C
50 | *C(=O)Nc1ccc(Oc2ccccc2-c2ccccc2Oc2ccc(NC(=O)c3ccc4c(c3)C(=O)N(c3ccc(Oc5ccc(-c6ccc(Oc7ccc(N8C(=O)c9ccc(*)cc9C8=O)cc7)cc6)cc5)cc3)C4=O)cc2)cc1 (repeat unit) | 239.00 °C
51 | *CC(*)OC(=O)c1ccc(Br)cc1 (repeat unit) | 85.50 °C
52 | *Oc1cc(CCCCCCCCCCCCC)cc(OC(=O)c2cccc(C(*)=O)c2)c1 (repeat unit) | 25.50 °C
53 | *[Si](*)(C)c1ccccc1 (repeat unit) | 88.00 °C
54 | *C(=O)Nc1ccc(Oc2ccc(NC(=O)c3ccc4c(c3)C(=O)N(c3cccc(P(=O)(c5ccccc5)c5cccc(N6C(=O)c7ccc(*)cc7C6=O)c5)c3)C4=O)cc2)cc1 (repeat unit) | 235.00 °C
55 | *O[Si](*)(C)CCCCCCCCCCC(=O)Oc1ccc(-c2ccc(OC(=O)CCCCC(=O)OC3CC(C)CCC3C(C)C)cc2)cc1 (repeat unit) | 16.50 °C
56 | *c1cc(-c2sc(-c3cc(CCCC)c(*)s3)cc2CCCC)c2cccccc1-2 (repeat unit) | 124.00 °C
57 | *O[Si](*)(C)CCCCCCCCCCCOc1ccc(-c2ccc(C(=O)Oc3ccc(C(=O)OC(C)C(=O)OC(C)C(=O)OC(C)C(=O)OCC(C)CC)cc3)cc2)cc1 (repeat unit) | 15.00 °C
58 | *CC(*)c1ccc(CCC(F)(F)C(F)(F)C(F)(F)C(F)(F)F)cc1 (repeat unit) | 23.00 °C
59 | *CCN(*)Cc1ccccc1 (repeat unit) | -16.00 °C
60 | *Oc1ccc(OC(=O)c2ccc(OCCCCCCOc3ccc(C(*)=O)cc3)cc2)cc1/N=N/c1ccc(C#N)cc1 (repeat unit) | 98.00 °C
61 | *Oc1ccc(OC(=O)c2ccc(-c3ccc(C(*)=O)cc3)cc2-c2ccccc2)c2ccccc12 (repeat unit) | 165.00 °C
62 | *Oc1ccc(NC(=O)c2cc(NC(=O)CCCCCN3C(=O)c4ccccc4C3=O)cc(C(=O)Nc3ccc(*)cc3)c2)cc1 (repeat unit) | 200.00 °C

From the PolyMetriX glass transition set
